Measured values: PubChem BioAssay AID651855 (NMMLSC, 2012)
Activity calls are given as the source filed them.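 Rule for the calls: active = compounds whose fitted concentration for half loss of dye binding is under 10 µM; inactive = the rest.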

System: not listed separately
Experiment: FAP-tagged hCCR5 fluorogen binding interference – cell-based, FAP-tagged human CCR5, Powderset3, counter-screen for beta2AR agonist project, dose response (AID 651855)
Details: FAP-tagged hCCR5 cells, MG2p fluorogen binding, flow cytometry; stronger effect = higher value

Row | Structure (SMILES) | percent span
1 | COCc1ccc(CN2CCCC(C(=O)Nc3ccc(-c4cccc(OC)c4)cc3)C2)o1 (configuration not stated) | 41.6% (inactive)
2 | c1ccc(-c2nnc(SCc3nc4ccccc4[nH]3)n2Cc2ccco2)cc1 | 15.8% (inactive)
3 | O=C(c1cc2c(=O)n3ccccc3nc2s1)N1CCN(Cc2ccc3c(c2)OCO3)CC1 | 39.7% (inactive)
4 | CCC(NC(=O)c1cc(COc2ccc(C)nc2)on1)c1ccc(C)cc1 (configuration not stated) | 53.2% (inactive)
5 | Cc1ccc(OCc2nnc(SCc3nc4ccccc4[nH]3)n2Cc2ccco2)cc1 | 61.9% (inactive)
6 | Cc1ccc(NC(=O)C(c2ccc(Cl)cc2)N2CCOCC2)cc1 (configuration not stated) | 49.5% (inactive)
7 | Cc1ccc(-c2nc3ncccc3o2)cc1NC(=O)c1sc2ccccc2c1Cl | 35.8% (inactive)
8 | CC(Oc1ccc(Cl)cc1Cl)c1nc(-c2ccc(NC(=O)c3ccco3)cc2)no1 (configuration not stated) | 42.1% (inactive)
9 | CC(C)CNc1ncnc2c1sc1nc(N3CCOCC3)c3c(c12)CC(C)(C)OC3 | -9.78% (inactive)
10 | COC(=O)c1ccc(CNC(=O)c2cc(COc3cncc(Cl)c3)on2)cc1 | 28.2% (inactive)
11 | CCCCN(C(=O)c1ccc(NC(=O)C(C)C)cc1)c1ccccc1 | 31.9% (inactive)
12 | O=C(NC1CCc2ccccc21)c1cc(COc2cncc(Cl)c2)on1 (configuration not stated) | 4.03% (inactive)
13 | CC1(C)Cc2c(c(N3CCOCC3)nc3sc4c(NCCN)ncnc4c23)CO1 | 116% (inactive)

System: FAP-tagged hCCR5 cells, MG2p fluorogen binding, flow cytometry
Experiment: as above
Details: not given

Row | Structure (SMILES) | EC50
14 | Cc1ccc(OCc2cc(C(=O)N(C)Cc3cnn(-c4ccccc4C)c3)no2)cn1 | 110 nM
15 | CC(Sc1nc(-c2ccccc2)cc(C(F)(F)F)n1)C(=O)N1CCCCC1 (configuration not stated) | 25.5 nM
16 | CC(Sc1nc(-c2ccccc2)cc(C(F)(F)F)n1)C(=O)N1CCOCC1 (configuration not stated) | 26.9 nM
17 | CC1(C)Cc2c(c(N3CCCC3)nc3sc4c(N5CCN(CCO)CC5)ncnc4c23)CO1 | 2960 nM
18 | Cc1ncc(CN2CCCC(C(=O)Nc3ccc(-c4cccc(F)c4)cc3)C2)s1 (configuration not stated) | 1240 nM
19 | CN(Cc1ccccc1)S(=O)(=O)c1ccc(NS(=O)(=O)Cc2ccccc2)cc1 | 106 nM
20 | Clc1cccc(-c2nnc(SCc3nc4ccccc4[nH]3)n2Cc2ccco2)c1 | 10400 nM
21 | C=CCn1c(CCNC(=O)c2cccs2)nnc1SCC(=O)c1ccc(Br)cc1 | 17.5 nM
22 | Cn1c(N2CCN(c3ccccn3)CC2)nc2c1c(=O)n(Cc1ccc(Cl)cc1)c(=O)n2C | 20.9 nM
23 | CC(C)Cc1nc2sc3c(NCc4ccco4)ncnc3c2c2c1COC(C)(C)C2 | 39.4 nM
24 | Cc1ccc(Cn2ccc(NC(=O)c3cc4nc(-c5ccco5)cc(C(F)(F)F)n4n3)n2)cc1 | 8.96 nM
25 | CSc1nc(SCCO)c2sc3nc(-c4ccco4)c4c(c3c2n1)CC(C)(C)OC4 | 1870 nM
26 | COc1ccc(OC)c(CCNC(=O)C2CCN(c3nnc(-n4cccc4)s3)CC2)c1 | 919 nM
27 | CC(=O)Nc1ccc(S(=O)(=O)N2CCC(Oc3ccc(-n4cnnn4)cc3)CC2)cc1 | 60.9 nM
28 | C=CCn1c(CCNC(=O)c2cccs2)nnc1SCC(=O)c1ccc(Cl)cc1 | 7.09 nM
29 | Cc1ccccc1N1CCN(c2ncnc3c2cnn3Cc2ccc(Cl)cc2)CC1 | 4330 nM
30 | C=CCn1c(CCNC(=O)c2cccs2)nnc1SCC(=O)c1cccc([N+](=O)[O-])c1 | 2.41 nM
31 | Clc1ccc(OCc2nnc(SCc3nc4ccccc4[nH]3)n2Cc2ccco2)cc1 | 10 nM
32 | CC(Oc1ccc(Cl)cc1Cl)c1nc(-c2ccc(NC(=O)c3ccccn3)cc2)no1 (configuration not stated) | 427 nM
